Data taken from patent US11040959B2, “Diprovocims: a new and potent class of TLR agonists” (The Scripps Research Institute, priority 2016, dated 2021).
Where two headings read alike, the source gives them in different places.

Key:
[1] = system: differentiated human THP-1 cells; assay: stimulated release of TNF-α from differentiated human THP-1 cells (ELISA, dose-response); type: cell-based
Protocol: A screening campaign was conducted with nearly 100,000 compounds [(a) Whitby et al., Acc. Chem. Res. 2012, 45:1698-1709; and (b) Boger et al., Angew. Chem. Int. Ed. 2003, 42:4138-4176], using a newly developed functional assay that measured the stimulated release of TNF-α from treated human THP-1 cells partially differentiated along the macrophage line [unpublished results of the inventors and co-workers]. […] The libraries screened in the efforts represent a unique compound collection populated by nontraditional compounds [(a) Whitby et al., Acc. Chem. Res. 2012, 45:1698-1709; and (b) Boger et al., Angew. Chem. Int. Ed. 2003, 42:4138-4176] designed to target protein-protein [(a) Shaginian et al., J. Am. Chem. Soc. 2009, 131:5564-5572; and (b) Whitby et al., J. Am. Chem. Soc. 2011, 133:10184-10194] or protein-DNA interactions [Stover et al., J. Am. Chem. Soc. 2009, 131:3342-3348] as well as the major enzyme classes [Otrubova et al., Bioorg. Med. Chem. Lett. 2014, 24:3807-3813].
Hits were confirmed in an ELISA assay for stimulated TNF-α release from human PMA differentiated THP-1 cells and this assay was used for establishing dose-response curves and measured EC50 values.

[2] = system: mouse macrophages; assay: stimulated release of TNF-α from mouse macrophages; type: cell-based; settings: for EC50: Macrophage; for activity in stimulating TNF-α release from mouse macrophages (in words): tested up to 5 μM where stated
Text: EC50 values are derived from dose-response curves for the stimulated release of TNF-α from differentiated THP-1 cells or mouse macrophages are shown beneath each appropriate structural formula of Compounds 8-12. Half maximal effective concentration (EC50) refers to the concentration of a drug, antibody or toxicant that induces a response halfway between the baseline and maximum after a specified exposure time. It is commonly used as a measure of a drug's potency.

[3] = Homo sapiens, THP-1, Table 3, TNF-α release from human THP-1 cells, read-out: EC50 (nM) (THP-1)
[4] = Table 3, TNF-α release from mouse macrophages, read-out: EC50 (nM) (mouse)
[5] = table of functionalized derivatives 147-151, mouse macrophages, read-out: EC50 (nM) (mouse)
[6] = Table 1, TNF-α release from mouse macrophages, read-out: EC50 (nM) (mouse)
[7] = Mus musculus, Scheme 1, footnote b, read-out: EC50 TNF-α release from mouse macrophages

## O=C(N[C@H]1C[C@@H]1c1ccccc1)[C@@H]1CN(C(=O)c2cc(O)c(C(=O)N3C[C@@H](C(=O)N[C@H]4C[C@@H]4c4ccccc4)[C@H](C(=O)N[C@H]4C[C@@H]4c4ccccc4)C3)cc2O)C[C@H]1C(=O)N[C@H]1C[C@@H]1c1ccccc1 [Compound 59, (3S,3′S,4S,4′S)-1,1′-(2,5-Dihydroxy-terephthaloyl)bis(N^3,N^4-bis((1S,2R)-2-phenylcyclo-propyl)-pyrrolidine-3,4-dicarboxamide)]
[1]; [3]
  EC50: 20 nM
[2]; [4]
  EC50: > 5000 nM

## O=C(NCCc1ccc(F)cc1)[C@H]1CN(C(=O)c2ccc(C(=O)N3C[C@@H](C(=O)N[C@H]4C[C@@H]4c4ccccc4)[C@H](C(=O)N[C@H]4C[C@@H]4c4ccccc4)C3)cc2)C[C@@H]1C(=O)NCCc1ccc(F)cc1 [Compound 115]
[1]; human THP-1 cells
  fold less active than 114 in human THP-1 cells: 5 fold
[2]
  activity in stimulating TNF-α release from mouse macrophages (in words): inactive

## Nc1cc(C(=O)N2C[C@@H](C(=O)N[C@H]3C[C@@H]3c3ccccc3)[C@H](C(=O)N[C@H]3C[C@@H]3c3ccccc3)C2)ccc1C(=O)N1C[C@@H](C(=O)N[C@H]2C[C@@H]2c2ccccc2)[C@H](C(=O)N[C@H]2C[C@@H]2c2ccccc2)C1 [Compound 55, (3S,3′S,4S,4′S)-1,1′-(2-Amino-terephthaloyl)-bis(N^3,N^4-bis((1S,2R)-2-phenylcyclopropyl)-pyrrolidine-3,4-dicarboxamide)]
[1]; [3]
  EC50: 1 nM
[2]; [4]
  EC50: 140 nM

## O=C(NCCc1ccc(F)cc1)[C@@H]1CN(C(=O)c2ccc(C(=O)N3C[C@@H](C(=O)N[C@H]4C[C@@H]4c4ccccc4)[C@H](C(=O)N[C@H]4C[C@@H]4c4ccccc4)C3)cc2)C[C@H]1C(=O)NCCc1ccc(F)cc1 [Compound 114, (3S,4S)-1-(4-((3S,4S)-3,4-Bis(((1S,2R)-2-phenylcyclopropyl)carbamoyl)-pyrrolidine-1-carbonyl)benzoyl)—N^3,N^4-bis(4-fluorophenethyl)-pyrrolidine-3,4-dicarboxamide]
[1]; tested up to 5 μM where stated
  activity in stimulating TNF-α release from human THP-1 cells (in words): active
[2]
  activity in stimulating TNF-α release from mouse macrophages (in words): active

## O=C(COc1cc(C(=O)N2C[C@@H](C(=O)N[C@H]3C[C@@H]3c3ccccc3)[C@H](C(=O)N[C@H]3C[C@@H]3c3ccccc3)C2)ccc1C(=O)N1C[C@@H](C(=O)N[C@H]2C[C@@H]2c2ccccc2)[C@H](C(=O)N[C@H]2C[C@@H]2c2ccccc2)C1)NCC(=O)N[C@@H](CO)C(=O)O [Compound 151, (2-(2,5-Bis((3S,4S)-3,4-bis(((1S,2R)-2-phenylcyclopropyl)carbamoyl)pyrrolidine-1-carbonyl)phenoxy)acetyl)glycyl-L-serine]
[1]; table of functionalized derivatives 147-151, human THP-1 cells, read-out: EC50 (nM) (THP-1)
  EC50: 0.24 nM
[2]; [5]
  EC50: 270 nM

## CC(C)(C)OC(=O)COCCOCCOCC(=O)Nc1cc(C(=O)N2C[C@@H](C(=O)N[C@H]3C[C@@H]3c3ccccc3)[C@H](C(=O)N[C@H]3C[C@@H]3c3ccccc3)C2)ccc1C(=O)N1C[C@@H](C(=O)N[C@H]2C[C@@H]2c2ccccc2)[C@H](C(=O)N[C@H]2C[C@@H]2c2ccccc2)C1 [Compound 150, tert-Butyl 2-(2-(2-(2-((2,5-Bis((3S,4S)-3,4-bis(((1S,2R)-2-phenylcyclopropyl)carbamoyl)-pyrrolidine-1-carbonyl)phenyl)amino)-2-oxoethoxy)ethoxy)ethoxy)acetate]
[1]; Homo sapiens, THP-1, table of functionalized derivatives 147-151, human THP-1 cells, read-out: EC50 (nM) (THP-1)
  EC50: 15 nM
[2]; [5]
  EC50: 130 nM

## CCCCCCCCCCCCCCCCNC(=O)[C@@H]1CCN(C(=O)c2ccc(C(=O)N3C[C@@H](C(=O)N[C@H]4C[C@@H]4c4ccccc4)[C@H](C(=O)N[C@H]4C[C@@H]4c4ccccc4)C3)cc2)C1 [Compound 125, (3S,4S)-1-(4-((R)-3-(Hexadecylcarbamoyl)-pyrrolidine-1-carbonyl)benzoyl)-N^3,N^4-bis((1S,2R)-2-phenylcyclopropyl)pyrrolidine-3,4-dicarboxamide]
[1]; table of 125-132 (one lipid side chain, R and S), human THP-1 cells, read-out: EC50 (nM) (THP-1)
  EC50: 15 nM
[2]; table of 125-132 (one lipid side chain, R and S), mouse macrophages, read-out: EC50 (nM) (mouse)
  EC50: > 5000 nM

## O=C(N[C@H]1C[C@@H]1c1ccccc1)[C@@H]1CN(C(=O)Cc2ccc(CC(=O)N3C[C@@H](C(=O)N[C@H]4C[C@@H]4c4ccccc4)[C@H](C(=O)N[C@H]4C[C@@H]4c4ccccc4)C3)cc2)C[C@H]1C(=O)N[C@H]1C[C@@H]1c1ccccc1 [Compound 48, (3S,3′S,4S,4′S)-1,1′-((1,4-Phenylene)diacetyl)-bis(N^3,N^4-bis((1S,2R)-2-phenylcyclopropyl)-pyrrolidine-3,4-dicarboxamide)]
[1]; Homo sapiens, THP-1, Table 2, TNF-α release from human THP-1 cells, read-out: EC50 (nM) (THP-1)
  EC50: > 5000 nM
[2]; Table 2, TNF-α release from mouse macrophages, read-out: EC50 (nM) (mouse)
  EC50: > 5000 nM

## C#CCOc1cc(C(=O)N2C[C@@H](C(=O)N[C@H]3C[C@@H]3c3ccccc3)[C@H](C(=O)N[C@H]3C[C@@H]3c3ccccc3)C2)ccc1C(=O)N1C[C@@H](C(=O)N[C@H]2C[C@@H]2c2ccccc2)[C@H](C(=O)N[C@H]2C[C@@H]2c2ccccc2)C1 [Compound 56, (3S,3′S,4S,4′S)-1,1′-(2-(Prop-2-yn-1-yloxy)-terephthaloyl)bis(N^3,N^4-bis((1S,2R)-2-phenylcyclo-propyl)pyrrolidine-3,4-dicarboxamide)]
[1]; [3]
  EC50: 15 nM
[2]; [4]
  EC50: 750 nM

## O=C(N[C@H]1C[C@@H]1c1ccccc1)[C@@H]1CN(C(=O)c2ccc(-c3ccc(C(=O)N4C[C@@H](C(=O)N[C@H]5C[C@@H]5c5ccccc5)[C@H](C(=O)N[C@H]5C[C@@H]5c5ccccc5)C4)cc3)cc2)C[C@H]1C(=O)N[C@H]1C[C@@H]1c1ccccc1 [Compound 39, (3S,3′S,4S,4′S)-1,1′-(4,4′-Biphenyldicarboxoyl)-bis(N^3,N^4-bis((1S,2R)-2-phenylcyclopropyl)-pyrrolidine-3,4-dicarboxamide)]
[1]; Homo sapiens, THP-1, Table 1, TNF-α release from human THP-1 cells, read-out: EC50 (nM) (THP-1)
  EC50: 90 nM
[2]; [6]
  EC50: 2300 nM

## CCCCCCCCCCCCCCNC(=O)[C@@H]1CN(C(=O)c2ccc(C(=O)N3C[C@@H](C(=O)N[C@H]4C[C@@H]4c4ccccc4)[C@H](C(=O)N[C@H]4C[C@@H]4c4ccccc4)C3)cc2)C[C@H]1C(=O)NCCCCCCCCCCCCCC [Compound 134, (3S,4S)-1-(4-((3S,4S)-3,4-Bis(((1S,2R)-2-phenylcyclopropyl)carbamoyl)pyrrolidine-1-carbonyl)benzoyl)-N^3,N^4-ditetradecylpyrrolidine-3,4-dicarboxamide]
[1]; Homo sapiens, THP-1, table of 133-139 (two lipid side chains), human THP-1 cells, read-out: EC50 (nM) (THP-1)
  EC50: 1.3 nM
[2]; table of 133-139 (two lipid side chains), mouse macrophages, read-out: EC50 (nM) (mouse)
  EC50: 620 nM

## O=C(N[C@@H]1C[C@H]1c1ccccc1)[C@H]1CN(C(=O)c2ccc(C(=O)N3C[C@@H](C(=O)N[C@H]4C[C@@H]4c4ccccc4)[C@H](C(=O)N[C@H]4C[C@@H]4c4ccccc4)C3)cc2)C[C@@H]1C(=O)N[C@@H]1C[C@H]1c1ccccc1 [Compound 27, (3S,4S)-1-(4-((3R,4R)-3,4-Bis(((1R,2S)-2-phenyl-cyclopropyl)carbamoyl)-pyrrolidine-1-carbonyl)-benzoyl)—N^3,N^4-bis((1S,2R)-2-phenylcyclopropyl)-pyrrolidine-3,4-dicarboxamide]
[1]; Homo sapiens, THP-1, Scheme 1, footnote a, read-out: EC50 TNF-α release from human THP-1 cells
  EC50: 20 nM
[2]; [7]
  EC50: ≥ 5000 nM

## O=C(N[C@H]1C[C@@H]1c1ccccc1)[C@@H]1CN(C(=O)c2ccc(C(=O)N3C[C@@H](C(=O)N[C@H]4C[C@@H]4c4ccccc4)[C@H](C(=O)N[C@H]4C[C@@H]4c4ccccc4)C3)cc2)C[C@H]1C(=O)N[C@H]1C[C@@H]1c1ccccc1 [Compound 3, (3S,3′S,4S,4′S)-1,1′-Terephthaloylbis(N^3,N^4-bis((1S,2R)-2-phenylcyclopropyl)pyrrolidine-3,4-dicarboxamide)]
[2]; [6]
  EC50: 1 nM
[2]; [7]
  EC50: 1 nM
[2]; Mus musculus, read-out: EC50, stimulated release of TNF-α from mouse macrophages
  EC50: 1 nM
